Data from patent US20080119456A1, “Substituted Thiazoleacetic Acid as Crth2 Ligands” (priority 2004, published 2008).
pIC50: −log10 of the molar value.

Tests used:
human CRTH2 receptor = target: T1, human CRTH2 receptor (Homo sapiens, UniProt Q9Y5Y4, V204A); assay: Receptor binding assay: [3H]PGD2 competition on whole COS-7 cells transfected with CRTH2; conditions: 0.1 nM [3H]PGD2, whole cells, 3 h at 4° C.
T1 construct: expressed in transfected cells; host or cells: COS-7 cells, transient, pcDNA3.1(+)
T1 sequence (Q9Y5Y4 1-395 V204A): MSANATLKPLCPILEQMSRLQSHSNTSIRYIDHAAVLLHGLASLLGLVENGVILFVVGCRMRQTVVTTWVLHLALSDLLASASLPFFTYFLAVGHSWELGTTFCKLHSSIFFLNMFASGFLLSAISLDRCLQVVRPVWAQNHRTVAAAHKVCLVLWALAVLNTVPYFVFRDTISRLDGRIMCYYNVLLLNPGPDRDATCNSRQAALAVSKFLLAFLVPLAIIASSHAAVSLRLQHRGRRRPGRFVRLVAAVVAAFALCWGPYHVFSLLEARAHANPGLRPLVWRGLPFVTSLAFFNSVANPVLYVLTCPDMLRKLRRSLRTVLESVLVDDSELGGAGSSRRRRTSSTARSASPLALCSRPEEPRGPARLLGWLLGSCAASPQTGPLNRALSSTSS
Source text: (§1) Generation/origin of the cDNA Constructs. The coding sequence of the human CRTH2 receptor (genbank accession no NM_004778) was amplified by PCR from a human hippocampus cDNA library and inserted into the pcDNA3.1(+) expression vector (invitrogen) via 5′ HindIII and 3′ EcoRI. To generate a CRTH2-Renilla luciferase (CRTH2-Rluc) fusion protein, the CRTH2 coding sequence without a STOP codon and Rluc were amplified, fused in frame by PCR and subcloned into the pcDNA3.1(+)Zeo expression vector (invitrogen). Human β-arrestin2 (β-arr2) N-terminally tagged with GFP^2 (βarr2-GFP^2) and Renilla luciferase were purchased from BioSignal Packard Inc, (Montreal, Canada). The sequence identity of the construct was verified by restriction endonuclease digests and sequencing in both directions on an ABI Prism (Applied Biosystems, Foster City, Calif.).
(§2) Cell Culture and Transfection. COS-7 cells were grown in Dulbecco's modified Eagle's medium (DMEM) 1885 supplemented with 10% fetal bovine serum, 100 units/ml penicillin, […] streptomycin, and kept at 37° C. in a 10% CO2 atmosphere. HEK293 cells were maintained in Minimum Essential medium (MEM) supplemented with 10% (v/v) heat inactivated fetal calf serum (HIFCS), 2 mM Glutamax™-I, 1% non essential amino acids (NEAA), 1% sodium pyruvate and 10 μg/ml gentamicin. For binding experiments, COS7 cells were transiently transfected with the CRTH2 receptor using a calcium phosphate-DNA coprecipitation method with the addition of chloroquine (as described by Hoist et al., 2001*). To perform the functional Bioluminescence Resonance Energy Transfer (BRET) assays, a HEK293 cell clone stably expressing βarr2-GFP^2 and CRTH2-Rluc was generated (CRTH2-HEK293 cells).
Binding assay. 24 h after transfection COS-7 cells were seeded into 96 well plates at a density of 30.000 cells/well. Competition binding experiments on whole cells were then performed about 18-24 h later using 0.1 nM [^3H]PGD2 (NEN, 172 Ci/mmol) in a binding buffer consisting of HBSS (GIBCO) and 10 mM HEPES. Competing ligands were diluted in DMSO which was kept constant at 1% (v/v) of the final incubation volume. Total and nonspecific binding were determined in the absence and presence of 10 μM PGD2. Binding reactions were routinely conducted for 3 h at 4° C. and terminated by 2 washes (100 μl each) with ice cold binding buffer. Radioactivity was determined by liquid scintillation counting in a TOPCOUNTER (Packard) following over night incubation in Microscint 20. Stable HEK293 cells were seeded at a density of 30.000 cells/well 18-24 h prior to the binding assay which was performed essentially as described for COS7 cells above. Determinations were made in duplicates.
(§3) Curve analysis was performed with the GraphPadPrism software 3.0 (Graphpad Prism Inc., San Diego, USA) and IC50 values were calculated as a measure of the antagonistic potencies.

human CRTH2-Rluc = target: T2, human CRTH2-Rluc (Homo sapiens, UniProt Q9Y5Y4, V204A); assay: Functional antagonist BRET assay on HEK293 cells stably expressing CRTH2-Rluc and GFP2-β-arr2; format: cell-based; conditions: antagonist incubated 15 minutes before agonist, read-out: Antag. IC50
T2 construct: expressed in transfected cells
T2 sequence (Q9Y5Y4 1-395 V204A): T1 sequence (Q9Y5Y4 1-395 V204A)
Source text: as §1, §2
BRET assay. Functional BRET assays were performed on HEK293 cells stably expressing human CRTH2-Rluc and GFP^2-β-arr2. Prior to their use in the BRET assay cells were detached and re-suspended in D-PBS with 1000 mg/L L-Glucose at a density of 2×10^6 cells/mL. DeepBlueC™ was diluted to 50 μM in D-PBS with 1000 mg/L L-Glucose (light sensitive). 100 μL of cell suspension was transferred to wells in a 96-well microplate (white OptiPlate) and placed in the Mithras LB 940 instrument (BERTHOLD TECHNOLOGIES, Bad Wildbad, Germany). 12 μL/well agonist was then injected by injector 1 and 10 μL/well DeepBlueC™ was injected simultaneously by injector 2. Five seconds after the injections the light output from the well was measured sequentially at 400 nm and 515 nm, and the BRET signal (mBRET ratio) was calculated by the ratio of the fluorescence emitted by GFP^2-β-arr2 (515 nm) over the light emitted by the receptor-Rluc (400 nm). Antagonists were added before placing the microplates into the Mithras LB 940 and allowed to incubate for 15 minutes prior to the addition of agonist and DeepBlueC™. Compounds were dissolved in DMSO and the final DMSO concentration was kept constant at 1% in the assay.
as §3

pIC50 (human CRTH2 receptor)	pIC50 (human CRTH2-Rluc)	SMILES
> 6.30	> 6.30	O=C(O)Cc1sc(C(c2ccccc2)c2ccccc2)nc1-c1ccc(Cl)cc1 [Compound A1, [2-Benzhydryl-4-(4-chloro-phenyl)-thiazol-5-yl]-acetic acid]
> 6.30	> 6.30	O=C(O)Cc1sc(C(c2ccccc2)c2ccccc2)nc1-c1ccc(F)cc1 [Compound A4, [2-Benzhydryl-4-(4-fluoro-phenyl)-thiazol-5-yl]-acetic acid]
> 6.30	5.30 to 6.30	O=C(O)Cc1sc(C(Cc2ccccc2)c2ccccc2)nc1-c1ccc(Cl)cc1 (centres unmarked) [Compound A5, [4-(4-Chloro-phenyl)-2-(1,2-diphenyl-ethyl)-thiazol-5-yl]-acetic acid]
> 6.30	–	CCC(c1ccccc1)c1nc(-c2ccc(Cl)cc2)c(CC(=O)O)s1 (centres unmarked) [Compound A6, [4-(4-Chloro-phenyl)-2-(1-phenyl-propyl)-thiazol-5-yl]-acetic acid]
> 6.30	> 6.30	O=C(O)Cc1sc(C(Cc2ccccc2)c2ccc(Cl)cc2)nc1-c1ccc(F)cc1 (centres unmarked) [Compound A7, [2-[1-(4-Chloro-phenyl)-2-phenyl-ethyl]-4-(4-fluoro-phenyl)-thiazol-5-yl]-acetic acid]
> 6.30	> 6.30	O=C(O)Cc1sc(C(c2ccccc2)c2ccc(Cl)cc2)nc1-c1ccc(Cl)cc1 (centres unmarked) [Compound A8, {4-(4-Chloro-phenyl)-2-[(4-chloro-phenyl)-phenyl-methyl]-thiazol-5-yl}-acetic acid]
> 6.30	5.30 to 6.30	O=C(O)Cc1sc(C(Cc2ccccc2)c2ccc(Cl)cc2)nc1-c1ccc(Cl)cc1 (centres unmarked) [Compound A9, {4-(4-Chloro-phenyl)-2-[1-(4-chloro-phenyl)-2-phenyl-ethyl]-thiazol-5-yl}-acetic acid]
> 6.30	> 6.30	O=C(O)Cc1sc(C(c2ccccc2)c2ccc(Cl)cc2)nc1-c1ccc(F)cc1 (centres unmarked) [Compound A10, [2-[(4-Chloro-phenyl)-phenyl-methyl]-4-(4-fluoro-phenyl)-thiazol-5-yl]-acetic acid]
5.30 to 6.30	> 6.30	O=C(O)Cc1sc(C(c2ccccc2)c2ccccc2)nc1-c1ccccc1 [Compound A11, (2-Benzhydryl-4-phenyl-thiazol-5-yl)-acetic acid]
> 6.30	5.30 to 6.30	COc1ccc(-c2nc(C(c3ccccc3)c3ccccc3)sc2CC(=O)O)cc1 [Compound A12, [2-Benzhydryl-4-(4-methoxy-phenyl)-thiazol-5-yl]-acetic acid]
> 6.30	> 6.30	O=C(O)Cc1sc(C(c2ccccc2)c2ccc(F)cc2)nc1-c1ccc(Cl)cc1 (centres unmarked) [Compound A13, {4-(4-Chloro-phenyl)-2-[(4-fluoro-phenyl)-phenyl-methyl]-thiazol-5-yl}-acetic acid]
> 6.30	> 6.30	O=C(O)Cc1sc(C(c2ccc(F)cc2)c2ccc(F)cc2)nc1-c1ccc(F)cc1 [Compound A14, [2-[Bis-(4-fluoro-phenyl)-methyl]-4-(4-fluoro-phenyl)-thiazol-5-yl]-acetic acid]
> 6.30	> 6.30	COc1ccc(C(c2ccccc2)c2nc(-c3ccc(F)cc3)c(CC(=O)O)s2)cc1 (centres unmarked) [Compound A15, {4-(4-Fluoro-phenyl)-2-[(4-methoxy-phenyl)-phenyl-methyl]-thiazol-5-yl}-acetic acid]
> 6.30	> 6.30	COc1ccc(C(c2ccccc2)c2nc(-c3ccc(Cl)cc3)c(CC(=O)O)s2)cc1 (centres unmarked) [Compound A16, {4-(4-Chloro-phenyl)-2-[(4-methoxy-phenyl)-phenyl-methyl]-thiazol-5-yl}-acetic acid]
> 6.30	< 5.30	O=C(O)Cc1sc(C(c2ccccc2)c2ccc(F)c(F)c2)nc1-c1ccc(Cl)cc1 (centres unmarked) [Compound A17, {4-(4-Chloro-phenyl)-2-[(3,4-difluoro-phenyl)-phenyl-methyl]-thiazol-5-yl}-acetic acid]
> 6.30	> 6.30	O=C(O)Cc1sc(C(c2ccccc2)c2ccc(F)c(F)c2)nc1-c1ccc(F)cc1 (centres unmarked) [Compound A18, [2-[(3,4-Difluoro-phenyl)-phenyl-methyl]-4-(4-fluoro-phenyl)-thiazol-5-yl]-acetic acid]
> 6.30	< 5.30	O=C(O)Cc1sc(C(NC(=O)c2ccc(C(F)(F)F)cc2)c2ccccc2)nc1-c1ccc(F)cc1 (centres unmarked) [Compound A19, {4-(4-Fluoro-phenyl)-2-[phenyl-(4-trifluoromethyl-benzoylamino)-methyl]-thiazol-5-yl}-acetic acid]
> 6.30	–	O=C(O)Cc1sc(C(c2ccccc2)c2ncccc2Cl)nc1-c1ccc(Cl)cc1 (centres unmarked) [Compound A29, {4-(4-Chloro-phenyl)-2-[(3-chloro-pyridin-2-yl)-phenyl-methyl]-thiazol-5-yl}-acetic acid]
> 6.30	–	COc1ccc(C(c2ccccn2)c2nc(-c3ccc(F)cc3)c(CC(=O)O)s2)cc1 (centres unmarked) [Compound A30, {4-(4-Fluoro-phenyl)-2-[(4-methoxy-phenyl)-pyridin-2-yl-methyl]-thiazol-5-yl}-acetic acid]
5.30 to 6.30	–	O=C(O)Cc1sc(C(c2ccccc2)C2CCCCC2)nc1-c1ccc(Cl)cc1 (centres unmarked) [Compound A32, [4-(4-Chloro-phenyl)-2-(cyclohexyl-phenyl-methyl)-thiazol-5-yl]-acetic acid]
5.30 to 6.30	–	O=C(O)Cc1sc(Cc2ccccc2Oc2ccccc2)nc1-c1ccc(Cl)cc1 [Compound A35, [4-(4-Chloro-phenyl)-2-(2-phenoxy-benzyl)-thiazol-5-yl]-acetic acid]
5.30 to 6.30	–	CC(=O)Nc1cccc(-c2ccccc2Cc2nc(-c3ccc(F)cc3)c(CC(=O)O)s2)c1 [Compound A39, [2-(3′-Acetylamino-biphenyl-2-ylmethyl)-4-(4-fluoro-phenyl)-thiazol-5-yl]-acetic acid]
> 6.30	–	COc1ccccc1-c1ccccc1Cc1nc(-c2ccc(F)cc2)c(CC(=O)O)s1 [Compound A41, [4-(4-Fluoro-phenyl)-2-(2′-methoxy-biphenyl-2-ylmethyl)-thiazol-5-yl]-acetic acid]
> 6.30	–	N#Cc1cccc(-c2ccccc2Cc2nc(-c3ccc(F)cc3)c(CC(=O)O)s2)c1 [Compound A43, [2-(3′-Cyano-biphenyl-2-ylmethyl)-4-(4-fluoro-phenyl)-thiazol-5-yl]-acetic acid]
> 6.30	–	O=C(O)Cc1sc(Cc2ccccc2-c2cccc(OC(F)(F)F)c2)nc1-c1ccc(F)cc1 [Compound A44, [4-(4-Fluoro-phenyl)-2-(3′-trifluoromethoxy-biphenyl-2-ylmethyl)-thiazol-5-yl]-acetic acid]
